Data from paper PMC9326216, “Treatment of Cardiovascular Dysfunction with PDE3-Inhibitors in Moderate and Severe Hypothermia—Effects on Cellular Elimination of Cyclic Adenosine Monophosphate and Cyclic Guanosine Monophosphate” (Frontiers in Physiology, 2022).
Read-outs that look alike come from different tables or passages of the source.

Key:
ABCC5 = type: biochemical
Protocol: Freshly collected EDTA blood from healthy donors (n = 35) was prepared at 0°C–4°C, starting by separating the erythrocytes from plasma by centrifugation at 2,300 g for approximately 15 min. […] Lysis followed thereafter, with ten volumes of 5 mM Tris-HCl, 0.5 mM EGTA, 4 mM KCl (pH 8.1) and washed by repeated centrifugation at 20,000 g for 20 min and resuspension in the same buffer. Vesiculation was initiated by adding 39 volumes of a […] buffer ([…] Tris-HCl, pH 8.2) to one volume of cell suspension and completed by forcing the solution five times through a 27-gauge syringe needle to promote homogenization of the membranes. […] The resulting IOVs, which still contained ABC-transporters in the membrane, enabled us to control the intracellular environment, in this case the surrounding medium, and collect the cyclic nucleotides within. […] Radioactive labeled (^3H)-cAMP or (^3H)-cGMP (Perkin Elmer, Boston, MA, United States) were added to the incubation solutions in the concentration 20 and 2 μM, respectively, depending on the transporter examined, together with the appointed study drug in concentrations up to 1 mM. […] Next step was to collect the IOVs, which was done by filtration through a nitrocellulose membrane (Bio-Rad Laboratories, Feldkirchen, Germany), and then drying it. The resulting collection of radioactivity upon the filter, was later quantified by using a Packard TopCount NXT (Packard, Downers Grove, IL, United states) after adding scintillation fluid (MicroScint-O, PerkinElmer, Groningen, Netherlands).
IC50 and Ki values were calculated for each of the drugs, both for their ability to inhibit cAMP- and cGMP- efflux, as well as PDE3 and PDE5 activity. […] Inhibition curves were created accordingly, both with and without adjustment for normothermic control.

PDE3 = conditions: ref Pathak et al., 2013; cited from earlier work
Chain of PDE3 (Q14432 whole entry): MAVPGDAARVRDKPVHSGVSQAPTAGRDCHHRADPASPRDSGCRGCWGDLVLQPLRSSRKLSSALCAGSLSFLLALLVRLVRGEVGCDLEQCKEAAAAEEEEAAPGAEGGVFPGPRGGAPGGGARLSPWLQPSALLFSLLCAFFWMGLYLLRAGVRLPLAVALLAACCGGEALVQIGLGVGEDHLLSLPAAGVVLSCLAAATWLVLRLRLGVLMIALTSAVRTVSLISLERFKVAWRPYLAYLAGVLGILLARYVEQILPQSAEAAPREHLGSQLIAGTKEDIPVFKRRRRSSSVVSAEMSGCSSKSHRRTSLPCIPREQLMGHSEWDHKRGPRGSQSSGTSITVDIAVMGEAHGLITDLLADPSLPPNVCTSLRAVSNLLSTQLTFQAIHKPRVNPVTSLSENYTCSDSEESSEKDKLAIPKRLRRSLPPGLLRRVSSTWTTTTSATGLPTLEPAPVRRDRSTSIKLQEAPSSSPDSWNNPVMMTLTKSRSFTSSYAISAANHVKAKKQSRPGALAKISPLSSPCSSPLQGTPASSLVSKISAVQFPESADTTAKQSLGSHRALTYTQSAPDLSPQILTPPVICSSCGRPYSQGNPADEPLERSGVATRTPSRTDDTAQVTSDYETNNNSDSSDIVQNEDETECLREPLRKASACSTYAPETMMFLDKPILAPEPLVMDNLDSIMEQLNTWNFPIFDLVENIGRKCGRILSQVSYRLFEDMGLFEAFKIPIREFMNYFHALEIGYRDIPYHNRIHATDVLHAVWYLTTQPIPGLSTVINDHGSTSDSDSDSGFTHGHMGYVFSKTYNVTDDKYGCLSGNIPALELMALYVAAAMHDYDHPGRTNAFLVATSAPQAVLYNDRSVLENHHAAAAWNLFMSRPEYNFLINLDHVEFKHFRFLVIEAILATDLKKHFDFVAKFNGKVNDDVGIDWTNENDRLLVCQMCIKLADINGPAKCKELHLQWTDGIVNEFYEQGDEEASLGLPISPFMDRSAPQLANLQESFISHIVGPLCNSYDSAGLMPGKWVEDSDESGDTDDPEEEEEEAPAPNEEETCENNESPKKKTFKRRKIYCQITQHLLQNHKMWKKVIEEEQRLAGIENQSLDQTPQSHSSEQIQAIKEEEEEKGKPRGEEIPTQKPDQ

## C[C@@H]1CC(=O)NN=C1c1ccc(NN=C(C#N)C#N)cc1 [Levosimendan]
ABCC5; 20°C
  Drug selectivity (IC50)/(IC50): (cGMP-efflux)/(PDE5) inhibition: 0.045
ABCC5; 24°C
  Drug selectivity (IC50)/(IC50): (cGMP-efflux)/(PDE5) inhibition: 0.124
ABCC5; 28°C
  Drug selectivity (IC50)/(IC50): (cGMP-efflux)/(PDE5) inhibition: 0.065
  Drug selectivity (IC50)/(IC50): (cGMP-efflux)/(cAMP-efflux) inhibition: 0.44
ABCC5; 32°C
  Drug selectivity (IC50)/(IC50): (cGMP-efflux)/(PDE5) inhibition: 0.081
  Drug selectivity (IC50)/(IC50): (cGMP-efflux)/(cAMP-efflux) inhibition: 0.80
ABCC5; 34°C
  Drug selectivity (IC50)/(IC50): (cGMP-efflux)/(PDE5) inhibition: 0.093
  Drug selectivity (IC50)/(IC50): (cGMP-efflux)/(cAMP-efflux) inhibition: 1.09
ABCC5; 37°C
  Drug selectivity (IC50)/(IC50): (cGMP-efflux)/(PDE5) inhibition: 0.184
  Drug selectivity (IC50)/(IC50): (cGMP-efflux)/(cAMP-efflux) inhibition: 3.03
PDE3
  Concentration at which it acts as a PDE3 inhibitor: > 0.3 µM
